14 compounds from DBAASP can be followed below.

Among the test systems are Escherichia coli; Staphylococcus aureus; Pseudomonas aeruginosa.
Common to all, as to experiment: ≥ marks a high value that may be exact or a test limit, other limits are often not marked, values filed in µg/mL are converted to µM
Experiment [1] has as its system Escherichia coli ATCC 25922.
For experiment [2], the system named is Staphylococcus aureus ATCC 29213.
Experiment [3] relates to Enterococcus faecalis ATCC 29212.
For experiment [4], the system named is Pseudomonas aeruginosa ATCC 27853.
Experiment [5] concerns Staphylococcus epidermidis ATCC 12228.
Experiment [6] deals with Candida albicans ATCC 90028.
The subject of experiment [7] is Salmonella enterica subsp. enterica serovar Typhimurium ATCC 14028.
The test system of experiment [8] is Pseudomonas aeruginosa PAO1.

Converted amounts (≈) assume the structure as drawn. “And” between values parts separate entries of the source, which are not always exact repeats. Equal entries are not always repeated. Some results are limits rather than exact numbers.

For `CC(C)C[C@H](NC(=O)[C@H](CCCCN)NC(=O)[C@@H]1CSSC[C@H](N)C(=O)N[C@@H](CCCCN)C(=O)N[C@@H](CCCCN)C(=O)N[C@@H](CC(C)C)C(=O)N[C@@H](CC(C)C)C(=O)N[C@@H](CCCCN)C(=O)N[C@@H](CC(C)C)C(=O)N[C@@H](CC(C)C)C(=O)N[C@@H](CCCCN)C(=O)N[C@@H](CCCCN)C(=O)N[C@@H](CC(C)C)C(=O)N1)C(=O)N[C@@H](C)C(=O)NCC(=O)O` [CKKLLKLLKKLCKLAG], the MIC – broadly, the lowest concentration found to suppress growth – was 5 µM (≈ 8.99 µg/mL) in experiment [1], 20 µM (≈ 36 µg/mL) against Escherichia coli and > 40 µM in experiment [2].
With `CSCC[C@H](NC(=O)[C@H](CCCN=C(N)N)NC(=O)[C@H](Cc1c[nH]c2ccccc12)NC(=O)[C@H](CCC(N)=O)NC(=O)[C@H](Cc1c[nH]c2ccccc12)NC(=O)[C@H](CC(C)C)NC(=O)[C@H](CC(C)C)NC(=O)[C@H](C)NC(=O)[C@H](CCCCN)NC(=O)[C@@H](N)Cc1ccccc1)C(=O)O` [FKALLWQWRM], the MIC in [3] and in [1] was 145 µM (≈ 200 µg/mL) in each case.
On to `CSCC[C@H](NC(=O)[C@H](CCCN=C(N)N)NC(=O)[C@H](Cc1c[nH]c2ccccc12)NC(=O)[C@H](CCC(N)=O)NC(=O)[C@H](Cc1c[nH]c2ccccc12)NC(=O)[C@H](CC(C)C)NC(=O)[C@H](CCCN=C(N)N)NC(=O)[C@H](C)NC(=O)[C@H](CCCCN)NC(=O)[C@@H](N)Cc1ccccc1)C(=O)O` [FKARLWQWRM], for which the figures for the MIC in experiment [3] and in experiment [1] were 141 µM (≈ 200 µg/mL) and 70.4 µM (≈ 100 µg/mL), respectively.
For the compound `CC[C@H](C)[C@H](NC(=O)CN)C(=O)NCC(=O)N[C@@H](CCCCN)C(=O)N[C@@H](Cc1ccccc1)C(=O)N[C@@H](CC(C)C)C(=O)N[C@@H](Cc1cnc[nH]1)C(=O)N[C@@H](CCCCN)C(=O)N[C@H](C(=O)NCC(=O)N[C@@H](CO)C(=O)N[C@@H](Cc1ccccc1)C(=O)N[C@H](C(=O)N[C@@H](CCCCN)C(=O)N[C@@H](CO)C(=O)N[C@@H](Cc1c[nH]c2ccccc12)C(=O)N[C@@H](CCCCN)C(=O)NCC(=O)N[C@@H](CCC(=O)O)C(=O)N[C@H](C(=O)N[C@@H](CCSC)C(=O)N[C@@H](CC(N)=O)C(=O)N[C@@H](CO)C(N)=O)[C@@H](C)CC)[C@@H](C)CC)C(C)C` [GIGKFLHKVGSFIKSWKGEIMNS], the values for the MIC in [1], in experiment [4] and in [2] were 5 µM (≈ 12.8 µg/mL), 51.3 µM (≈ 131 µg/mL) and 73 µM (≈ 187 µg/mL), respectively.
Take `CC[C@H](C)[C@H](NC(=O)CN)C(=O)N[C@@H](CCCCN)C(=O)N[C@@H](CCCCN)C(=O)N[C@@H](Cc1c[nH]c2ccccc12)C(=O)N[C@@H](CC(C)C)C(=O)N[C@@H](Cc1cnc[nH]1)C(=O)N[C@@H](CO)C(=O)N[C@@H](C)C(=O)N[C@@H](CCCCN)C(=O)N[C@@H](CCCCN)C(=O)N1CCC[C@H]1C(=O)N1CCC[C@H]1C(=O)N[C@@H](CCCCN)C(=O)N[C@@H](CCCCN)C(=O)N[C@@H](Cc1ccccc1)C(=O)N[C@H](C(=O)N[C@@H](CCCCN)C(=O)N[C@@H](CCCCN)C(=O)N[C@H](C(=O)N[C@@H](CCSC)C(=O)N[C@@H](CC(N)=O)C(=O)N[C@@H](CO)C(N)=O)[C@@H](C)CC)C(C)C` [GIKKWLHSAKKPPKKFVKKIMNS]: the MIC in experiment [1] is > 80 µM; in experiment [5], 10 µM (≈ 26.9 µg/mL).
`CC[C@H](C)[C@H](N)C(=O)N[C@H](C(=O)N[C@@H](CO)C(=O)N[C@H](C(=O)N[C@H](C(=O)NCC(=O)N[C@@H](CCCCN)C(=O)N[C@@H](CC(C)C)C(=O)N1CCC[C@H]1C(=O)N[C@@H](CCCCN)C(=O)N[C@@H](Cc1c[nH]c2ccccc12)C(=O)N[C@H](C(=O)N[C@H](C(=O)N[C@@H](CCCCN)C(=O)N[C@H](C(=O)N[C@H](C(=O)N[C@@H](CC(N)=O)C(=O)N[C@@H](CCCCN)C(=O)N[C@@H](Cc1ccccc1)C(=O)N[C@H](C(=O)N[C@@H](CCCCN)C(=O)N[C@@H](CCCCN)C(=O)O)[C@@H](C)O)C(C)C)[C@@H](C)O)[C@@H](C)CC)[C@@H](C)CC)[C@@H](C)CC)[C@@H](C)O)[C@@H](C)CC` [IISTIGKLPKWIIKTVNKFTKK]: the values for the MIC against Escherichia coli and in the experiment on Staphylococcus aureus were 2.7 µM (≈ 6.9 µg/mL) and 22 µM (≈ 56.3 µg/mL), respectively.
Take `CC(C)C[C@H](NC(=O)[C@H](C)NC(=O)[C@@H](N)CCCCN)C(=O)N[C@@H](C)C(=O)N[C@@H](C)C(=O)N[C@@H](CC(C)C)C(=O)N[C@@H](CC(C)C)C(=O)N[C@@H](CCCCN)C(=O)N[C@@H](CCCCN)C(=O)N[C@@H](Cc1c[nH]c2ccccc12)C(=O)N[C@@H](C)C(=O)N[C@@H](CCCCN)C(=O)N[C@@H](CC(C)C)C(=O)N[C@@H](CC(C)C)C(=O)N[C@@H](C)C(=O)N[C@@H](C)C(=O)N[C@@H](CC(C)C)C(=O)N[C@@H](CCCCN)C(N)=O` [KALAALLKKWAKLLAALK]: the MIC in the experiment with Escherichia coli stood at 4.1 µM (≈ 8 µg/mL); in the experiment on Pseudomonas aeruginosa, 5.8 µM (≈ 11.3 µg/mL); against Staphylococcus aureus, 3 µM (≈ 5.85 µg/mL).
Turning to `CC(C)C[C@H](NC(=O)[C@H](C)NC(=O)[C@H](CCCCN)NC(=O)[C@H](CC(C)C)NC(=O)[C@H](CC(C)C)NC(=O)[C@H](Cc1c[nH]c2ccccc12)NC(=O)[C@H](CCCCN)NC(=O)[C@H](CC(C)C)NC(=O)[C@H](C)NC(=O)[C@H](C)NC(=O)[C@H](CCCCN)NC(=O)[C@H](C)NC(=O)[C@H](CC(C)C)NC(=O)[C@H](CC(C)C)NC(=O)[C@@H](N)CCCCN)C(=O)N[C@@H](CCCCN)C(=O)N[C@@H](C)C(=O)N[C@@H](C)C(N)=O` [KLLAKAALKWLLKALKAA], the MIC worked out at 6.2 µM (≈ 12.1 µg/mL) against Escherichia coli, 12.4 µM (≈ 24.2 µg/mL) against Pseudomonas aeruginosa and 1.6 µM (≈ 3.12 µg/mL) in the experiment on Staphylococcus aureus.
Take `CC[C@H](C)[C@H](NC(=O)[C@H](CCCN=C(N)N)NC(=O)[C@H](C)NC(=O)[C@@H](NC(=O)[C@@H](NC(=O)[C@H](CCCN=C(N)N)NC(=O)[C@@H](N)CCCCN)[C@@H](C)CC)C(C)C)C(=O)N[C@@H](CCCCN)C(=O)N[C@@H](CC(=O)O)C(=O)N[C@@H](Cc1ccccc1)C(=O)N[C@@H](CC(C)C)C(=O)N[C@@H](CCCN=C(N)N)C(=O)O` [KRIVARIKDFLR]: the MIC came to 20 µM (≈ 30.3 µg/mL) in experiment [6], 5 µM (≈ 7.57 µg/mL) in experiment [1], 5 µM (≈ 7.57 µg/mL) in [4] and 20 µM (≈ 30.3 µg/mL) in [2].
With `CC[C@H](C)[C@H](NC(=O)[C@H](Cc1ccccc1)NC(=O)[C@H](CO)NC(=O)[C@H](CCCCN)NC(=O)[C@H](Cc1c[nH]c2ccccc12)NC(=O)[C@@H](N)CCCCN)C(=O)N[C@@H](CCCCN)C(=O)N[C@@H](CCCCN)C(=O)N[C@@H](CC(C)C)C(=O)N[C@@H](CC(C)C)C(=O)N[C@@H](CO)C(=O)N[C@@H](CCCCN)C(=O)N[C@@H](Cc1ccccc1)C(=O)N[C@@H](CC(C)C)C(=O)N[C@@H](Cc1cnc[nH]1)C(=O)N[C@@H](CO)C(=O)N[C@@H](C)C(=O)N[C@@H](CCCCN)C(=O)N[C@@H](CCCCN)C(=O)N[C@@H](Cc1ccccc1)C(N)=O` [KWKSFIKKLLSKFLHSAKKF], the MIC in the experiment with Pseudomonas aeruginosa was found to be 5.07 µM (≈ 12.5 µg/mL). That is a single-digit micromolar value.
In the experiment with Pseudomonas aeruginosa, `CC[C@H](C)[C@H](NC(=O)[C@H](Cc1ccccc1)NC(=O)[C@H](CO)NC(=O)[C@H](CCCCN)NC(=O)[C@H](Cc1c[nH]c2ccccc12)NC(=O)[C@@H](N)CCCCN)C(=O)N[C@@H](CCCCN)C(=O)N[C@@H](CCCCN)C(=O)N[C@@H](CC(C)C)C(=O)N[C@H](C(=O)N[C@@H](CO)C(=O)N[C@@H](CCCCN)C(=O)N[C@@H](Cc1ccccc1)C(=O)N[C@@H](CC(C)C)C(=O)N[C@@H](Cc1cnc[nH]1)C(=O)N[C@@H](CC(C)C)C(=O)N[C@@H](C)C(=O)N[C@@H](CCCCN)C(=O)N[C@@H](CCCCN)C(=O)N[C@@H](Cc1ccccc1)C(N)=O)[C@@H](C)O` [KWKSFIKKLTSKFLHLAKKF] returned an MIC of 5.04 µM (≈ 12.5 µg/mL).
Regarding `CC[C@H](C)[C@H](NC(=O)[C@H](CCCN=C(N)N)NC(=O)[C@H](C)NC(=O)[C@H](CC(N)=O)NC(=O)[C@H](CCCCN)NC(=O)[C@@H](N)CC(C)C)C(=O)N[C@H](C(=O)NCC(=O)N[C@@H](CCC(=O)O)C(=O)N[C@@H](CC(C)C)C(=O)N[C@H](C(=O)NCC(=O)N[C@@H](Cc1ccccc1)C(=O)N[C@@H](CCCN=C(N)N)C(=O)N1CCC[C@H]1C(=O)N[C@H](C(=O)N[C@@H](CCCN=C(N)N)C(=O)N1CCC[C@H]1C(=O)N[C@@H](CCC(N)=O)C(=O)N[C@H](C(=O)N[C@@H](CCCN=C(N)N)C(=O)N[C@@H](CC(C)C)C(=O)N[C@@H](CCC(=O)O)C(=O)O)C(C)C)C(C)C)[C@@H](C)O)C(C)C` [LKNARIVGELTGFRPVRPQVRLE], the MIC in experiment [3] amounted to 12.5 µM (≈ 33.1 µg/mL); in [1], 12.5 µM (≈ 33.1 µg/mL); in experiment [7] it was 25 µM (≈ 66.2 µg/mL).
As to `CC(C)C[C@H](NC(=O)[C@H](CCCN=C(N)N)NC(=O)[C@@H](N)CCCN=C(N)N)C(=O)N[C@@H](CCCN=C(N)N)C(=O)N1CCC[C@H]1C(=O)N[C@@H](CCCN=C(N)N)C(=O)N[C@@H](CCCN=C(N)N)C(=O)N1CCC[C@H]1C(=O)N[C@@H](CCCN=C(N)N)C(=O)N[C@@H](CC(C)C)C(=O)N1CCC[C@H]1C(=O)N[C@@H](CCCN=C(N)N)C(=O)N1CCC[C@H]1C(=O)N[C@@H](CCCN=C(N)N)C(=O)N1CCC[C@H]1C(=O)N[C@@H](CCCN=C(N)N)C(=O)O` [RRLRPRRPRLPRPRPR], the MIC in experiment [3] was > 32 µM; in experiment [8], 16 µM and 32 µM; in experiment [2] it was > 32 µM.
Take `NC(=O)[C@H](Cc1ccccc1)NC(=O)[C@H](Cc1ccccc1)NC(=O)[C@H](Cc1ccccc1)NC(=O)[C@@H]1CCCN1C(=O)[C@H](CCCN=C(N)N)NC(=O)[C@@H]1CCCN1C(=O)[C@H](CCCN=C(N)N)NC(=O)[C@@H]1CCCN1C(=O)[C@H](CCCN=C(N)N)NC(=O)[C@@H]1CCCN1C(=O)[C@H](CCCN=C(N)N)NC(=O)[C@@H](N)CCCN=C(N)N` [RRPRPRPRPFFF]: the results for the MIC in experiment [1], in [4] and in [2] were 80 µM (≈ 130 µg/mL), > 160 µM and 40 µM (≈ 65.1 µg/mL), respectively.
